Laboratory results reported in US12168664B2, “Triazolopyrimidines, their preparation and use” (THE TRUSTEES OF COLUMBIA UNIVERSITY IN THE CITY OF NEW YORK, priority 2018, dated 2024).
Values joined by “and” are separate entries in the source; they are usually repeats but may differ in a detail not shown here. Equal entries are not always repeated.

Key:
RBP4-TTR interaction = RBP4-TTR interaction (Homo sapiens (Human), UniProt P02753); test: HTRF (TR-FRET) assay for antagonists of retinol-induced RBP4-TTR interaction; assay type: biochemical; conditions: in the presence of 1 μM retinol
Description: TR-FRET Assay for Retinol-Induced RBP4-TTR Interaction
Binding of a desired RBP4 antagonist displaces retinol and induces hindrance for RBP4-TTR interaction resulting in the decreased FRET signal (FIG. 7). Bacterially expressed MBP-RBP4 and untagged TTR were used in this assay. For the use in the TR-FRET assay, the maltose binding protein (MBP)-tagged human RBP4 fragment (amino acids 19-201) was expressed in the Gold(DE3)pLysS E. coli strain (Stratagene) using the pMAL-c4x vector. Following cell lysis, recombinant RBP4 was purified from the soluble fraction using the ACTA FPLC system (GE Healthcare) equipped with the 5-ml the MBP Trap HP column. Human untagged TTR was purchased from Calbiochem. Untagged TTR was labeled directly with Eu^3+ Cryptate-NHS using the HTRF Cryptate Labeling kit from CisBio following the manufacturer's recommendations. HTRF assay was performed in white low volume 384 well plates (Greiner-Bio) in a final assay volume of 16 μl per well. […] Titration of test compounds in this assay was conducted in the presence of 1 μM retinol. […] TR-FRET signal was measured in the SpectraMax M5e Multimode Plate Reader (Molecular Device). […] The TR-FRET signal was expressed as the ratio of fluorescence intensity: Flu665/Flu620×10,000.
(§1) The compounds listed below were tested in two in vitro assays, RBP4 binding (SPA) and retinol-dependent RBP4-TTR interaction (HTRF) (Table 1).

human RBP4 = human RBP4 (Homo sapiens (Human), UniProt P02753); test: SPA binding assay for RBP4 (scintillation proximity, 3H-retinol displacement); conditions: 10 nM 3H-retinol, 50 nM biotinylated RBP4
Description: Scintillation Proximity RBP4 Binding Assay
Untagged human RBP4 purified from the urine of tubular proteinuria patients was purchased from Fitzgerald Industries International. It was biotinylated using the EZ-Link Sulfo-NHS-LC-Biotinylation kit from Pierce following the manufacturer's recommendations. […] Nonspecific binding was determined in the presence of 20 μM of unlabeled retinol. The reaction mix was assembled in the dark under dim red light. The plates were sealed with clear tape (TopSeal-A: 96-well microplate, PerkinElmer), wrapped in the aluminum foil, and allowed to equilibrate 6 hours at room temperature followed by overnight incubation at +4° C. Radiocounts were measured using a TopCount NXT counter (Packard Instrument Company).
as §1

PPARγ = PPARγ (Homo sapiens (Human), UniProt P37231); test: PPARγ agonist assay (HTRF, PPARγ-NCOR interaction); assay type: biochemical; conditions: read-out: PPAR γ assay (HTRF) for agonists of this nuclear receptor - IC50
Sequence of PPARγ (P37231 204-505): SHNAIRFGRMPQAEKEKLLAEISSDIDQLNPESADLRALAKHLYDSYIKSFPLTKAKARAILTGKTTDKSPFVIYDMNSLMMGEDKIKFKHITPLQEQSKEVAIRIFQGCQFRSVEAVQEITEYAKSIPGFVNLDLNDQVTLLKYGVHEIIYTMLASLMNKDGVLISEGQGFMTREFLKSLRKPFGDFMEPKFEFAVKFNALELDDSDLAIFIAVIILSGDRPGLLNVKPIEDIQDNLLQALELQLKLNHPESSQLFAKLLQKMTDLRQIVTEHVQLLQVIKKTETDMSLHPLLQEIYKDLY
Description: Significant safety issues are associated with the clinical use of PPARγ agonists (increased risk of death, myocardial infarction, stroke, congestive heart failure, hepatotoxicity, peripheral edema, weight gain and carcinogenicity^1-4). We wanted to characterize the compounds we identified in a pilot screen as potential PPARγ agonists. The PPARγ assay is based on agonist-sensitive interaction of the GST-tagged ligand-binding domain (LRD) of the nuclear receptor PPARγ with the biotinylated corepressor NCOR peptide (FIG. 8).
Assay reactions are performed in a final volume of 16 ul.
In well of the 384-well assay plate, mix 6 ul of PPARγ solution, 4 ul of NCOR2 solution and 4 μl of Rosi solution. Test compounds diluted from DMSO stocks to 4× assay concentration in 1×HTRF, 100 mM KF buffer may be dispensed to well instead of Rosi. Negative control wells contained DMSO solvent alone; positive control well contained […]. […] Two μl of detection mix was added per well. […] The plate was incubated for 16 hrs at 4° C.
HTRF signal was measured in the SpectraMax M5e Multimode Plate Reader (Molecular Device). Fluorescence was excited at 337 nm. […] The signal was expressed as the ratio of fluorescence intensity: Flu668/Flu620×10,000. […]

CYP2D6 = CYP2D6 (Homo sapiens (Human), UniProt P10635); test: CYP inhibition, fluorescent, CYP2D6; assay type: in vitro ADME
Sequence of CYP2D6 (P10635 whole entry, species assumed): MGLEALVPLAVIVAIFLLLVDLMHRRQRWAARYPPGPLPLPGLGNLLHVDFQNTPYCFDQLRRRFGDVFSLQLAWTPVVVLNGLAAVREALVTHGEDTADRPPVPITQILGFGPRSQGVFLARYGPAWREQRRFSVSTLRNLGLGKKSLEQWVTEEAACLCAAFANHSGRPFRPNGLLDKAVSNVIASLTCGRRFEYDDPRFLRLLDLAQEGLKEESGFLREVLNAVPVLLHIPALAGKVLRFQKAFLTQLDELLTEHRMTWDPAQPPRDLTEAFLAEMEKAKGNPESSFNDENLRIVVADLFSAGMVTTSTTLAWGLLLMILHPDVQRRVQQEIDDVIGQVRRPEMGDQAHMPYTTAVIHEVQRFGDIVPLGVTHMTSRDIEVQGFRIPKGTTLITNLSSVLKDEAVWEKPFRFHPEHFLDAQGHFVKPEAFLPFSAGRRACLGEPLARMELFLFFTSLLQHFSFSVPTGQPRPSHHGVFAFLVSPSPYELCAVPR
Description: (§2) The compounds listed below were tested in various metabolic stability and CYP inhibition assays.

[1] = Metabolic stability in liver microsomes (HLM); assay type: in vitro ADME, human
Description: as §2

CYP2C19 = CYP2C19 (Homo sapiens (Human), UniProt P33261); test: CYP inhibition, fluorescent, CYP2C19; assay type: in vitro ADME
Sequence of CYP2C19 (P33261 whole entry, species assumed): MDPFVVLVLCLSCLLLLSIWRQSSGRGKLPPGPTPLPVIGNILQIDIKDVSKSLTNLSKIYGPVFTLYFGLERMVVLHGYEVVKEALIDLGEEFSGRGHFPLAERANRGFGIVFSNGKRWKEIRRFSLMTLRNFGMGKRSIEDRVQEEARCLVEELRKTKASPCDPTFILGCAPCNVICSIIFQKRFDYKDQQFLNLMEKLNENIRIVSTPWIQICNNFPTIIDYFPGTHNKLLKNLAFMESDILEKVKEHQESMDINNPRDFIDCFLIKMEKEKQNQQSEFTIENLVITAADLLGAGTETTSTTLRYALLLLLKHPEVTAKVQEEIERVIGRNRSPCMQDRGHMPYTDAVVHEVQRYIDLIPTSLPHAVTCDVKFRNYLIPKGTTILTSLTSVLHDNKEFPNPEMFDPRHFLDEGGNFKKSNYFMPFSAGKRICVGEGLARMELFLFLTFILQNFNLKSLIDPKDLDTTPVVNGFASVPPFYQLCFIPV
Description: as §2

CYP3A4 = CYP3A4 (Homo sapiens (Human), UniProt P08684); test: CYP inhibition, fluorescent, CYP3A4; assay type: in vitro ADME
Sequence of CYP3A4 (P08684 whole entry, species assumed): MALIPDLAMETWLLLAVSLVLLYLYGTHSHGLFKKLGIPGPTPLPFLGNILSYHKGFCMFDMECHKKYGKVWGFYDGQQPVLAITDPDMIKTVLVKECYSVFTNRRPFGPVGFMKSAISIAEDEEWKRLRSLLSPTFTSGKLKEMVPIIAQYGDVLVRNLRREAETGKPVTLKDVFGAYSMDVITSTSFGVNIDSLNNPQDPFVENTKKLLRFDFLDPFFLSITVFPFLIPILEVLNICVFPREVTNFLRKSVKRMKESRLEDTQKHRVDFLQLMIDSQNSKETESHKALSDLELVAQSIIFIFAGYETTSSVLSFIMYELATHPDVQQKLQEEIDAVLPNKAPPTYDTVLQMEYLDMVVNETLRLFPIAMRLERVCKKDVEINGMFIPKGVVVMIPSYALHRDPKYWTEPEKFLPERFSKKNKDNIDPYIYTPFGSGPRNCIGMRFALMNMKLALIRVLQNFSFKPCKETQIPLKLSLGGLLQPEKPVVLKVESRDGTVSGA
Description: as §2

serum RBP4 = serum RBP4 (Mus musculus (Mouse), UniProt Q00724); test: Serum RBP4 reduction in Balb/c mice after a single oral administration; assay type: in vivo; conditions: at 6 hr timepoint
Description: Pharmacodynamic Studies of 7a and 7p in Balb/c Mice Following a Single Oral Administration
Animal protocols were approved by the Institutional Animal Care and Use Committee of Columbia University and complied with guidelines set forth by The Association for Research in Vision and Ophthalmology. Compounds were prepared as a suspension in 0.9% NaCl, 2% Tween 80 for oral administration. Compounds were administered to Balb/c mice in a volume of 100 μL through oral gavage. The doses used were 15 mg/kg, 25 mg/kg and 35 mg/kg for 7a while two doses, 25 mg/kg and 35 mg/kg, were tested for DENG-31(FFB-0000082). Blood samples were collected at pre-dose and 1 hr, 2 hr, 4 hr, 6 hr, 8 hr, and 24 hr timepoints. Whole blood was drawn into a centrifuge tube and was let clot at room temperature for 30 min followed by centrifugation at 2,000×g for 15 minutes at +4° C. to collect serum. Serum RBP4 was measured using the RBP4 (mouse/rat) dual ELISA kit (AdipoGen) following the manufacturer's instructions.
In order to attain this objective, the effect of oral compound administration was studied in mice. Three doses of compound 7a and two doses of 7p were tested in Balb/c mice assay for reduction of serum RBP4.

CYP2C9 = CYP2C9 (Homo sapiens (Human), UniProt P11712); test: CYP inhibition, fluorescent, CYP2C9; assay type: in vitro ADME
Sequence of CYP2C9 (P11712 whole entry, species assumed): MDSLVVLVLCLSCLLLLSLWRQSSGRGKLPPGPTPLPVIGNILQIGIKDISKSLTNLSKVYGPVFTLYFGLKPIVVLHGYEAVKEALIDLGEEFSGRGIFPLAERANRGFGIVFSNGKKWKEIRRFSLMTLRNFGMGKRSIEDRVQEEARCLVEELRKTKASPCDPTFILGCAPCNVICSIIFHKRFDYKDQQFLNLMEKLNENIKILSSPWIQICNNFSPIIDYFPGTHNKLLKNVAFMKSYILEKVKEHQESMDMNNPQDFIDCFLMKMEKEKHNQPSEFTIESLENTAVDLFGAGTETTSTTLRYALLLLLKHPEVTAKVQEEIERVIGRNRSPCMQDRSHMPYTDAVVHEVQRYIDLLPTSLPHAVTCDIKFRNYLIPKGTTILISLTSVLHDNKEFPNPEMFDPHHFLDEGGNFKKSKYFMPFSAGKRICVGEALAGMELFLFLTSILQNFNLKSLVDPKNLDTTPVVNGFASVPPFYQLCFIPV
Description: as §2

Row | Compound | IC50 (RBP4-TTR interaction) | IC50 (human RBP4) [nM] | IC50 (PPARγ) [nM] | other results
1 | O=C(c1nc2ncccn2n1)N1C[C@H]2C[C@@H](c3ccccc3-c3ccccc3)C[C@H]2C1 [Compound 10d] | 300 nM |  |  | 
2 | Cc1ccn2c(C(=O)N3C[C@H]4C[C@@H](c5ccccc5C(F)(F)F)C[C@H]4C3)nnc2n1 [Compound 7g] | 415 nM | 45 | > 100000 | IC50 (CYP2D6): > 100000 nM; Metabolic stability in liver microsomes: % Remaining at 30 min, HLM [1]: 61%; IC50 (CYP2C19): > 100000 nM; IC50 (CYP3A4): > 100000 nM
3 | O=C(c1nc2ncc(CCO)cn2n1)N1C[C@@H]2CN(c3cc(F)ccc3C(F)(F)F)C[C@@H]2C1 [Compound 7p] | 150 nM | 37 | > 100000 | IC50 (CYP2D6): > 20000 nM; Metabolic stability in liver microsomes: % Remaining at 30 min, HLM [1]: 73%; maximum serum RBP4 reduction (serum RBP4; single 25 mg/kg PO): 89%; maximum serum RBP4 reduction (serum RBP4; single 35 mg/kg PO): 87%; IC50 (CYP2C19): > 20000 nM; IC50 (CYP3A4): > 20000 nM; IC50 (CYP2C9): > 20000 nM
4 | O=C(c1nc2ncc(CCO)cn2n1)N1C[C@@H]2CN(c3cc(F)ccc3C(F)(F)F)C[C@@H]2C1 [Compound 7q] | 491 nM | 31 | > 100000 | Metabolic stability in liver microsomes: % Remaining at 30 min, HLM [1]: 26%
5 | O=C(c1cnc2ncccn12)N1C[C@H]2C[C@@H](c3ccccc3OC(F)(F)F)C[C@H]2C1 [Compound 9d] | 1450 nM | 88.1 |  | 
6 | O=C(c1nc2ncc(CCCl)cn2n1)N1C[C@H]2C[C@@H](c3ccccc3C(F)(F)F)C[C@H]2C1 [Compound 7n] | 628 nM | 67 | > 100000 | 
7 | CC(=O)OCCc1cnc2nc(C(=O)N3C[C@H]4C[C@@H](c5ccccc5C(F)(F)F)C[C@H]4C3)nn2c1 [Compound 7l] | 230 nM | 23 | > 100000 | 
8 | O=C(c1c[nH]c2cnccc12)N1C[C@H]2C[C@@H](c3ccccc3C(F)(F)F)C[C@H]2C1 [Compound 8a] | > 30000 nM |  |  | 
9 | O=C(c1cn2cccnc2n1)N1C[C@H]2C[C@@H](c3ccccc3OC(F)(F)F)C[C@H]2C1 [Compound 9g] | 741 nM | 78.4 |  | 
10 | Cc1ccn2c(C(=O)N3C[C@H]4C[C@@H](c5ccccc5OC(F)(F)F)C[C@H]4C3)nnc2n1 [Compound 9c] | 1130 nM | 82.9 |  | 
11 | Cc1cc(C)n2nc(C(=O)N3C[C@H]4C[C@@H](c5ccccc5C(F)(F)F)C[C@H]4C3)nc2n1 [Compound 7f] | 4580 nM and 7440 nM | 108 | > 100000 | 
12 | O=C(c1nc2ncc(CCO)cn2n1)N1C[C@@H]2CN(c3ccccc3C(F)(F)F)C[C@@H]2C1 [Compound 7o] | 257 nM | 22 | > 100000 | IC50 (CYP2D6): > 20000 nM; IC50 (CYP2C19): > 20000 nM; IC50 (CYP3A4): > 20000 nM
13 | O=C(c1c[nH]c2ccncc12)N1C[C@H]2C[C@@H](c3ccccc3C(F)(F)F)C[C@H]2C1 [Compound 8b] | > 30000 nM |  |  | 
14 | Cc1ccn2cc(C(=O)N3C[C@H]4C[C@@H](c5ccccc5OC(F)(F)F)C[C@H]4C3)nc2c1 [Compound 9h] | 2480 nM | 104 |  | 
15 | COCCc1cnc2nc(C(=O)N3C[C@H]4C[C@@H](c5ccccc5C(F)(F)F)C[C@H]4C3)nn2c1 [Compound 7k] | 1010 nM | 67 | > 100000 | 
16 | O=C(c1nc2ncc(CCO)cn2n1)N1C[C@H]2C[C@@H](c3cc(F)ccc3C(F)(F)F)C[C@H]2C1 [Compound 7i] | 494 nM |  |  | 
17 | Cc1cnc2nc(C(=O)N3C[C@H]4C[C@@H](c5ccccc5OC(F)(F)F)C[C@H]4C3)nn2c1 [Compound 9f] | 450 nM | 57.1 |  | 

More lines, main results first:

Row | IC50 (RBP4-TTR interaction) | IC50 (human RBP4) [nM] | IC50 (PPARγ) [nM] | Compound | other results
18 | 20400 nM | 443 |  | O=C(c1nc2nc(C(F)(F)F)ccn2n1)N1C[C@H]2C[C@@H](c3ccccc3OC(F)(F)F)C[C@H]2C1 [Compound 9i] | 
19 | 306 nM and 1850 nM and 2800 nM | 122 | > 100000 | Cc1ccnc2nc(C(=O)N3C[C@H]4C[C@@H](c5ccccc5C(F)(F)F)C[C@H]4C3)nn12 [Compound 7d] | 
20 |  | 27.3 |  | O=C(c1nc2ncccn2n1)N1C[C@H]2C[C@@H](c3ccccc3C(F)(F)C(F)(F)F)C[C@H]2C1 [Compound 9a] | 
21 | 949 nM | 39 | > 100000 | O=C(c1nc2ncc(Br)cn2n1)N1C[C@H]2C[C@@H](c3ccccc3C(F)(F)F)C[C@H]2C1 [Compound 7c] | 
22 |  |  | > 100000 | Cc1cnc2nc(C(=O)N3C[C@H]4C[C@@H](c5ccccc5C(F)(F)F)C[C@H]4C3)nn2c1 [Compound 7e] | IC50 (CYP2D6): 12400 nM and 36000 nM; Metabolic stability in liver microsomes: % Remaining at 30 min, HLM [1]: 85% and 66%; IC50 (CYP2C19): > 100000 nM; IC50 (CYP2C9): 16000 nM and 50000 nM
23 |  | 14800 |  | Cc1ccccc1[C@@H]1C[C@@H]2CN(C(=O)c3nc4ncccn4n3)C[C@@H]2C1 [Compound 10a] | 
24 | 40.8 nM |  |  | CC(C)c1ccccc1[C@@H]1C[C@@H]2CN(C(=O)c3nc4ncccn4n3)C[C@@H]2C1 [Compound 10c] | 
25 | 410 nM | 38 | > 100000 | O=C(c1nc2ncccn2n1)N1C[C@H]2C[C@@H](c3cc(F)ccc3C(F)(F)F)C[C@H]2C1 [Compound 7h] | 
26 | 551 nM and 473 nM |  |  | O=C(c1nc2ncccn2n1)N1C[C@H]2C[C@@H](c3ccccc3OC(F)(F)F)C[C@H]2C1 [Compound 9j] | 
27 | 661 nM | 46 | > 100000 | O=C(c1nnc2ncccn12)N1C[C@H]2C[C@@H](c3ccccc3C(F)(F)F)C[C@H]2C1 [Compound 7b] | 
28 | 1470 nM | 247 | > 100000 | NCCc1cnc2nc(C(=O)N3C[C@H]4C[C@@H](c5ccccc5C(F)(F)F)C[C@H]4C3)nn2c1 [Compound 7m] | 
29 | 200 nM | 16 | > 100000 | O=C(c1nc2ncc(CCO)cn2n1)N1C[C@H]2C[C@@H](c3ccccc3C(F)(F)F)C[C@H]2C1 [Compound 7j] | IC50 (CYP2D6): > 100000 nM; Metabolic stability in liver microsomes: % Remaining at 30 min, HLM [1]: 73%; IC50 (CYP2C19): > 100000 nM; IC50 (CYP3A4): > 100000 nM; IC50 (CYP2C9): 60000 nM
